# Results from patent US8158829B2, “Organic sulfur compound and its use for controlling harmful arthropod” (Sumitomo Chemical Company, Limited, priority 2007, dated 2012).
# Test system: Blattella germanica
# Assay: Test Example 3: filter paper with sucrose bait, Blattella germanica male imagoes
# Assay type: in vivo
# Details: 500 ppm, 0.7 ml on filter paper; 2 male imagoes; after 6 days
# Experimental: Preparations of the present compounds (2), (3), (5) and (6) obtained according to Formulation Example 11 were diluted so that the active ingredient concentration was 500 ppm to obtain test solutions.
# A filter paper having a diameter of 5.5 cm was spread on the bottom of a polyethylene cup having a diameter of 5.5 cm and 0.7 ml of the test solution was added dropwise onto the filter paper. As a bait 30 mg of sucrose was uniformly placed on the filter paper. Into the polyethylene cup, 2 male imagoes of Blattella germanica were released and the cup was sealed with a lid. After 6 days, the number of surviving Blattella germanica was examined and the death rate of the pest was calculated.
row,Compound,death rate of the pest [%]
1,"NC(=O)C(Cl)(CCC(F)(F)C(F)(F)Br)S(=O)(=O)CCC(F)(F)F (stereo not shown) [present compound (6), 6-bromo-2-chloro-5,5,6,6-tetrafluoro-2-(3,3,3-trifluoropropylsulfonyl)hexanamide]",100
2,"NC(=O)C(Cl)(CCC(F)(Cl)C(F)(F)Cl)S(=O)(=O)CCC(F)(F)F (stereo not shown) [present compound (3), 2,5,6-trichloro-5,6,6-trifluoro-2-(3,3,3-trifluoropropylsulfonyl)hexanamide]",100
3,"COC(=O)C(Cl)(CCC(F)(F)C(F)(F)Br)S(=O)(=O)CCC(F)(F)F (stereo not shown) [present compound (5), methyl 6-bromo-2-chloro-5,5,6,6-tetrafluoro-2-(3,3,3-trifluoropropylsulfonyl)hexanoate]",100
4,"COC(=O)C(Cl)(CCC(F)(Cl)C(F)(F)Cl)S(=O)(=O)CCC(F)(F)F (stereo not shown) [present compound (2), methyl 2,5,6-trichloro-5,6,6-trifluoro-2-(3,3,3-trifluoropropylsulfonyl)hexanoate]",100
